Tested on: B16F10 melanoma tumor cells
Experiment: In vivo anti-cancer efficacy in melanoma tumor model
Set-up: species or system C57B1/6J mice
Details: subcutaneous B16F10 melanoma in mice
Procedure: Finally, in vivo anti-cancer efficacy of DOX-STB was analyzed in a melanoma tumor model made by subcutaneous injection of B16F10 melanoma tumor cells into C57B1/6J mice (FIG. 7A).

COc1cccc2c1C(=O)c1c(O)c3c(c(O)c1C2=O)C[C@@](O)(C(=O)CO)C[C@@H]3O[C@H]1C[C@H](N)[C@H](O)[C@H](C)O1 [DOX, doxorubicin]
tumor size in gross: tumor size decreased

From patent US12318401B2, “Injectable shear-thinning hydrogel containing therapeutic agent for enhanced tumor therapy” (MAYO FOUNDATION FOR MEDICAL EDUCATION AND RESEARCH, priority 2021, dated 2025)
